Reference: patent publication US9975917B1, “Pentacyclic triterpenoidal derivatives” (KING SAUD UNIVERSITY, priority 2017, dated 2018)

Assays:
5-Lipoxygenase [1] = target: T1, 5-Lipoxygenase (Rattus norvegicus, UniProt P12527); test: 5-LOX product formation from endogenous arachidonic acid in ionophore-stimulated intact rat PMNL (System A); type: cell-based; details: ionophore A23187 and Ca2+, 37° C. 5 min, means±standard deviation, n=6
T1 construct: from 20 μM exogenous substrate in 105.000 g supernatants of rat PMNL (System B); from tissue; host or cells: 105,000 g supernatant of sonicated peritoneal PMNL of Wistar rats
T1 sequence (P12527 1-673): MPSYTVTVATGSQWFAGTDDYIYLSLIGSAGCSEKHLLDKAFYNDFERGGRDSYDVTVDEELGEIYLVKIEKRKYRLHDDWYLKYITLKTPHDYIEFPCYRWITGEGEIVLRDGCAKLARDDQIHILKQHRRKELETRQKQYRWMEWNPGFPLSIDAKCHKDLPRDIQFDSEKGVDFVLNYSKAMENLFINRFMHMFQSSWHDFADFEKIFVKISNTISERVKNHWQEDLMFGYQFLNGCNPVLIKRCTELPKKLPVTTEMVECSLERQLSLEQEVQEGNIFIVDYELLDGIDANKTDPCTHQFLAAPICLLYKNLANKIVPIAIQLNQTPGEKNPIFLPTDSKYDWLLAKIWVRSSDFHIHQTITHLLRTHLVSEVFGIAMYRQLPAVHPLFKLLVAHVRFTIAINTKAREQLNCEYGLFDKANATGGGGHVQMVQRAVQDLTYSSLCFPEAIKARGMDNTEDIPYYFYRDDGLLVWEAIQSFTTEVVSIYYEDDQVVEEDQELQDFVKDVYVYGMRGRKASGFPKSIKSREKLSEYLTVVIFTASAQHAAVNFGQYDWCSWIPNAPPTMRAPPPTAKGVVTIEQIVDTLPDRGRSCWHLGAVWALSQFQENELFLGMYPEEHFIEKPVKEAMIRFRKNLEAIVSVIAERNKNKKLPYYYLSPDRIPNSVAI
Method: (§1) Glycogen-elicited rat peritoneal PMNL were collected 4 hours after the injection of a glycogen solution (5%) in Dulbecco's phosphate-buffered saline (PBS) into the peritoneum of 300-350 g Wistar rats. The washed cells (>90% PMNL) were lysed at 2×10^7 cells mL^−1 by sonication (3×5 s, digital Sonifier) in PBS containing 1 mm EDTA, and were subjected to sequential centrifugation at 10,000 and 105,000 g for 10 and 60 min (4° C.), respectively. Freshly obtained PMNL suspensions and aliquots of the 105,000 g supernatants were assayed for 5-lipoxygenase activity.
(§2) For 5-lipoxygenase product formation from endogenous arachidonic acid, glycogen-elicited rat peritoneal PMNL (1×10^7 cells) were stimulated at 37° C. for 5 min by ionophore A23187 and Ca^2+. The 5-lipoxygenase activity in the cell-free system was tested in aliquots (corresponding to 1×10^7 cells) of the 105,000 g supernatant fraction of rat PMNL in the presence of 1 mm ATP, 1.8 mM CaCl2, 1 mM EDTA, and 20 μM arachidonic acid at 37° C. for 5 min. In both intact cells and cell-free tests, the incubations were terminated by cooling to 4° C. and acidification to pH of 3 with formic acid. For inhibition studies, the test compounds dissolved in dimethyl sulphoxide (DMSO) were added 5 min prior to initiation.
(§3) Inhibitors and non-inhibitory pentacyclic triterpenes were added simultaneously. All incubations, including controls, were carried out in the presence of 0.5% DMSO. The 5-lipoxygenase products were quantified after the addition of 170 ng PGB2 as an internal standard by extraction, with RP-HPLC separation and ultraviolet detection of products. With intact rat PMNL and the 105,000 g supernatant fraction the main products from arachidonic acid of 5 min incubations were leukotriene B4 (LTB4), 6-trans-LTB4, 12-epi-6-trans-LTB4 and 5-HETE along with negligible amounts of 5(S), 12(S)-diHETE.
(§4) FIG. 2 is a graph showing the effects of the pentacyclic triterpenoidal derivatives on 5-Lox product formation for System A. FIG. 3 is a graph showing the effects of the pentacyclic triterpenoidal derivatives on 5-Lox product formation for System B. Inhibition concentrations (IC50) of the biological effect of each of the compounds were determined after logit-log transformation of the data for each experiment. Data of independent observations (n=6) are shown as means±standard deviation.

5-Lipoxygenase [2] = target: T1, 5-Lipoxygenase; test: 5-LOX product formation from 20 μM exogenous substrate in 105,000 g supernatants of rat PMNL, cell-free (System B); type: biochemical; details: cell-free 105,000 g supernatant of rat PMNL, 20 μM arachidonic acid, 1 mM ATP, 1.8 mM CaCl2, 37° C. 5 min; means±standard deviation, n=6
Method: as §1, §2, §3, §4

SMILES | IC50 (5-Lipoxygenase [1]) | IC50 (5-Lipoxygenase [2]) | melting point
CC(=O)O[C@@H]1CC[C@@]2(C)[C@@H](CC[C@]3(C)[C@@H]2C(=O)C=C2[C@@H]4[C@@H](C)[C@H](C)CC[C@]4(C)CC[C@]23C)[C@@]1(C)C(=O)O [AKBA, Acetyl-11-keto-β-boswellic acid, reference compound] | 1.5 µM | 7 µM | –
CC1CCC2(C)CCC3(C)C(=CC(=O)C4C5(C)CCC(=O)C(C)(c6ccccc6)C5CCC43C)C2C1C (centres unmarked) [Compound 5, 24-norurs-12-en-24(phenyl)-3,11-dione] | 0.17 µM | 0.28 µM | 256 °C
CC1CCC2(C)CCC3(C)C(=CC(=O)C4C5(C)CCC(O)C(C)(C(=O)O)C5CCC43C)C2C1C (stereo not drawn) [11-keto-β-boswellic acid/1, 11-keto-β-boswellic acid, reference compound] | 2.8 µM | 14.6 µM | –
CC1CCC2(C)CCC3(C)C(=CC(=O)C4C5(C)CCC(=O)C(C)(C(=O)Cl)C5CCC43C)C2C1C (stereo not drawn) [Compound 3, 3,11-dioxo-urs-12-en-24β-acid chloride] | 0.19 µM | 0.34 µM | –
CC1CCC2(C)CCC3(C)C(=CC(=O)C4C5(C)CCC(=O)C(C)(C(=O)c6ccccc6)C5CCC43C)C2C1C (centres unmarked) [Compound 4, 3,11-dioxo-24(phenyl)-urs-12-en-24-one] | 0.078 µM | 0.098 µM | 300 °C

Further lines, results first:

IC50 (5-Lipoxygenase [1]) | IC50 (5-Lipoxygenase [2]) | melting point | SMILES
0.12 µM | 0.24 µM | 267 °C | CC1CCC2(C)CCC3(C)C(=CC(=O)C4C5(C)C=CC(=O)C(C)(c6ccccc6)C5CCC43C)C2C1C (centres unmarked) [Compound 7, 24-nor-urs-1,12-diene-24(phenyl)-3,11-dione]
0.021 µM | 0.044 µM | – | CC1CCC2(C)CCC3(C)C(=CC(=O)C4C5(C)C=CC(=O)C(C)(C(=O)c6ccccc6)C5CCC43C)C2C1C (centres unmarked) [Compound 6, 3,11-dioxo-24(Phenyl)-urs-1,12-diene-24-one]
